Measured values reported in PMC3308197 (Journal of Medicinal Chemistry, 2012).

Conditions: from measured plasma protein binding in vitro of 92%

SMILES: Cc1cc(-c2nnc(N)nc2-c2ccccc2)cc(C(F)(F)F)n1 [Compound 4k, 6-[2-Methyl-6-(trifluoromethyl)pyridin-4-yl]-5-phenyl-1,2,4-triazin-3-amine]
- unbound plasma fraction: 8%
